In US20250235410A1, “WATER-SOLUBLE CANNABIDIOL MICROCAPSULES AND PREPARATION METHOD THEREOF” (Northeast Agricultural University, priority 2022, published 2025):

Assays:
[1] = Influence of environmental pH value on stability (retention rate of CBD); type: physicochemical; details: 4 °C, 12 h
Method: (§1) Determination of retention rate of CBD in MRPs-CBD microcapsules: the above method to determine CBD content in MRPs-CBD microcapsules is used to accurately determine the initial CBD content in MRPs-CBD microcapsules and the CBD content retained in microcapsules under different treatment methods, and the retention rate of CBD in microcapsules is calculated according to the following formula: […]
A proper amount of samples are weighed and dissolved in distilled water, and the pH values of the solutions are adjusted as 1, 2, 3, 4, 5, 6, 7, 8, 9, 10, 11 and 12 respectively, and samples are placed in a sealed and dark environment at 4° C. for 12 h, then taken out and its retention rate of CBD is determined.

[2] = Influence of incandescent light on stability (retention rate of CBD); type: physicochemical; details: 15th day of incandescent light (25 W), 4 °C, sealed
Method: as §1
A proper amount of samples are weighed, sealed, placed under incandescent light (25 W) at 4° C. for 15 d, and taken out on the 1st, 3rd, 6th, 9th, 12th and 15th day respectively, and the retention rate of CBD is determined.

[3] = Release in simulated gastric juice; type: in vitro ADME; details: 1 h in simulated gastric juice
Method: An appropriate amount of samples are weighed and released in simulated gastric juice. Samples are taken according to the time gradient of 0.5, 1.0, 1.5, 2.0, 2.5 and 3.0 h, and the cumulative release rate of CBD is determined.

[4] = Release in simulated intestinal juice; type: in vitro ADME; details: 1 h in simulated intestinal juice
Method: An appropriate amount of samples are weighed and released in simulated intestinal juice. Samples are taken according to the time gradient of 0.5, 1.0, 1.5, 2.0, 2.5 and 3.0 h, and the cumulative release rate of CBD is determined.

[5] = Influence of oxygen on stability (retention rate of CBD); type: physicochemical; details: 15th day, dark, aerobic
Method: as §1
An appropriate amount of samples are weighed, placed at 4° C. and 25° C. for 15 days in the dark and aerobic conditions, and taken out at on 1st, 3rd, 5th, 7th, 9th, 12th and 15th day to determine the retention rate of CBD. See FIG. 8A and FIG. 8B for the test results.

[6] = DPPH radical scavenging rate; type: biochemical; details: P<0.05
Method: (§2) The antioxidant activity of glycosylation product-based water-soluble cannabidiol microcapsules is analyzed through radical scavenging rate. The scavenging ability of 1,1-Diphenyl-2-picrylhydrazyl (DPPH) and, 2′-azino-bis (3-ethylbenzothiazoline-6-sulfonic acid (ABTS^+) radical cation is mainly studied.
Determination of DPPH radical scavenging rate: 1 mL of CBD with different concentrations, methanol solution of microcapsules with different concentrations and 4 mL of 0.1 mmol/L DPPH solution (DPPH dissolved in 95% ethanol) are mixed evenly, and kept in the dark for 30 min at room temperature. Using 95% ethanol as reference solution, the absorbance at 517 nm is read. The absorbance value of the sample mixed with DPPH ethanol solution is recorded as A, the absorbance value of the sample mixed with 95% ethanol solution is Ai, and the absorbance value of the single DPPH ethanol solution is Aj. The calculation formula is as follows: […]

[7] = Influence of temperature on stability (retention rate of CBD); type: physicochemical; details: 4-100 °C, sealed, dark, 12 h
Method: Determination of retention rate of CBD in MRPs-CBD microcapsules: the above method to determine CBD content in MRPs-CBD microcapsules is used to accurately determine the initial CBD content in MRPs-CBD microcapsules and the CBD content retained in microcapsules under different treatment methods, and the retention rate of CBD in microcapsules is calculated according to the following formula:
An appropriate amount of samples are weighed, placed in a sealed and dark environment at 4° C., 25° C., 37° C., 50° C., 80° C. and 100° C. for 12 h and taken out, and the retention rate of CBD is determined.

[8] = ABTS+ radical cation scavenging rate; type: biochemical; details: P<0.05
Method: as §2
Determination of ABTS^+ radical scavenging rate: 10 mg of ABTS and 2.9 mg of potassium persulfate are taken, dissolved in 10 mL of 0.01 mol/L sodium phosphate buffer, and stored in the dark at 25° C. for 15 h for later use. 2.5 mL ABTS solution is taken, added with 20 mL of 0.01 mol/L sodium phosphate buffer, and diluted with distilled water so that the absorbance at 734 nm is 0.7, to obtain an ABTS analysis solution. 1 mL of CBD with different concentrations and methanol solutions of microcapsules with different concentrations are taken respectively, added with 2 mL of above ABTS analysis solution to the test tube for reacting for 10 min, and then 95% ethanol is used as reference solution to read the absorbance value at 734 nm. The absorbance value of the sample mixed with ABTS analysis solution is marked as A, the absorbance value of the sample mixed with 95% ethanol solution is Ai, and the absorbance value of the single ABTS analysis solution is Aj. The calculation formula is as follows: […]

SMILES: C=C(C)[C@@H]1CCC(C)=C[C@H]1c1c(O)cc(CCCCC)cc1O [unencapsulated CBD, Cannabidiol]
- retention rate of CBD, trend ([1]; environmental pH increases from 1 to 6): increase significantly
- retention rate of CBD, trend ([1]; environmental pH increases from 8 to 12): decrease significantly
- retention rate of CBD [2]: 24.53±1.56%
- fate of CBD in simulated gastric juice [3]: completely digested and degraded
- fate of CBD in simulated intestinal juice [4]: completely digested and degraded
- retention rate of CBD ([5]; 4 °C): 43.87±1.83%
- retention rate of CBD ([5]; 25 °C): 38.85±1.76%
- DPPH scavenging rate, change with increase of CBD concentration [6]: increase significantly
- retention rate of CBD, trend with increase of temperature [7]: continuous downward trends
- ABTS+ scavenging rate, change with increase of CBD concentration [8]: increase significantly
